Measured values published in ChEMBL document CHEMBL1126321, “Antitumor agents. 123. Synthesis and human DNA topoisomerase II inhibitory activity of 2'-chloro derivatives of etoposide and 4 beta-(arylamino)-4'-O-demethylpodophyllotoxins” (J Med Chem, 1992).

Columns and labels:
[1] = test system: Nucleic Acid; test: Effect on cellular protein DNA complex formation(%) at 10 uM in comparison with etoposide; type: functional
[2] = Concentration required for 50% reduction in KB cell number after 3-day incubation; type: functional, cell-based, Homo sapiens
[3] = biological target: T1, DNA topoisomerase II (Homo sapiens) (UniProt P11388+Q02880); test: Evaluated for the inhibition of human DNA Topoisomerase II; type: protein assay
[4] = biological target: T1, DNA topoisomerase II (Homo sapiens); test: Compound was evaluated for the inhibition of human DNA Topoisomerase II; type: protein assay

SMILES	Complex formation [1] [%]	IC50 [2] [µM]	ID50 [3] [µM]	ID50 [4] [µM]
COc1cc([C@@H]2c3cc4c(cc3[C@@H](Nc3ccc(F)cc3)[C@H]3COC(=O)[C@H]23)OCO4)cc(OC)c1O	213	0.24		
COc1cc([C@@H]2c3cc4c(cc3[C@@H](Nc3cccc(O)c3)[C@H]3COC(=O)[C@H]23)OCO4)cc(OC)c1O	290	0.45		
COc1cc([C@@H]2c3cc4c(cc3[C@@H](Nc3ccc([N+](=O)[O-])cc3)[C@H]3COC(=O)[C@H]23)OCO4)cc(OC)c1O	323	0.49		
COc1cc([C@@H]2c3cc4c(cc3[C@@H](O)[C@H]3COC(=O)[C@H]23)OCO4)c(Cl)c(OC)c1O	15.6	> 22.3	> 50	
COc1cc([C@@H]2c3cc4c(cc3[C@@H](Nc3ccc5c(c3)OCCO5)[C@H]3COC(=O)[C@H]23)OCO4)c(Cl)c(OC)c1O	0	> 7	> 100	
COc1cc([C@@H]2c3cc4c(cc3[C@@H](Nc3ccc(Cl)cc3)[C@H]3COC(=O)[C@H]23)OCO4)c(Cl)c(OC)c1O	0	> 7.3	> 100	
COc1cc([C@@H]2c3cc4c(cc3[C@@H](Nc3ccc5c(c3)OCO5)[C@H]3COC(=O)[C@H]23)OCO4)c(Cl)c(OC)c1O	0	> 7.2	> 100	
COc1cc([C@@H]2c3cc4c(cc3[C@@H](O[C@@H]3O[C@@H]5CO[C@@H](C)O[C@H]5[C@H](O)[C@H]3O)[C@H]3COC(=O)[C@H]23)OCO4)cc(OC)c1O [ETOPOSIDE]	100	0.2		
COc1cc([C@@H]2c3cc4c(cc3[C@@H](Nc3cccc([N+](=O)[O-])c3)[C@H]3COC(=O)[C@H]23)OCO4)c(Cl)c(OC)c1O	0	> 7.2	> 100	
COc1cc([C@@H]2c3cc4c(cc3[C@@H](Nc3ccc5c(c3)OCO5)[C@H]3COC(=O)[C@H]23)OCO4)cc(OC)c1O	279	0.68	10	
COc1cc([C@@H]2c3cc4c(cc3[C@@H](O[C@@H]3O[C@@H]5CO[C@@H](C)O[C@H]5[C@H](O)[C@H]3O)[C@H]3COC(=O)[C@H]23)OCO4)c(Cl)c(OC)c1O	6.1	> 6.4	> 50	
COc1cc([C@@H]2c3cc4c(cc3[C@@H](Nc3cccc(O)c3)[C@H]3COC(=O)[C@H]23)OCO4)c(Cl)c(OC)c1O	0	5.7	> 100	
COc1cc([C@@H]2c3cc4c(cc3[C@@H](Nc3ccc(F)cc3)[C@H]3COC(=O)[C@H]23)OCO4)c(Cl)c(OC)c1O	0	> 7.5	> 100	
COc1cc([C@@H]2c3cc4c(cc3[C@@H](Nc3ccc([N+](=O)[O-])cc3)[C@H]3COC(=O)[C@H]23)OCO4)c(Cl)c(OC)c1O	0	> 7.2		> 100
COc1cc([C@@H]2c3cc4c(cc3[C@@H](Nc3ccc(Br)cc3)[C@H]3COC(=O)[C@H]23)OCO4)c(Cl)c(OC)c1O	0	> 6.8	> 100	
